Measurements: the supplement of paper PMC10307832

Experiments:
Test in all cases: relative viability (nuclei count vs DMSO), 5 days (fraction); higher = more cells survive
[1] = compound: C1CC2=C(C1)C=C(C=C2)OC3=NC(=C4C(=N3)N(C=N4)CC5=CC=C(C=C5)C6=CC=CC=C6)N[C@@H](CC7=CC=CC=C7)CO [QS11] + CC(=O)c1c(C)c2cnc(Nc3ccc(N4CCNCC4)cn3)nc2n(C2CCCC2)c1=O [Palbociclib] (partner 0.5 µM)
Procedure, shortened: (§1)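 Cells from lung cancer lines were seeded into 1536-well plates and, one day later, dosed by pin tool. Treatments were either a single drug or a fixed dose of an anchor drug with five library-drug doses (not always all listed) in √10 steps. After 5 days, nuclei were stained in a one-step fixation (final 0.05% Triton X-100, 1% formaldehyde, 1 ug/ml Hoechst) and counted on 4× images, and relative viability is the treated-to-vehicle nuclei ratio, as the median of duplicate plates.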

[2] = compound: CC1=C(C=C(C=C1)NC(=O)C2=CC(=CC=C2)C(C)(C)C#N)NC3=CC4=C(C=C3)N=CN(C4=O)C [AZ628] + CC(=O)Nc1cccc(-n2c(=O)n(C3CC3)c(=O)c3c(Nc4ccc(I)cc4F)n(C)c(=O)c(C)c32)c1 [Trametinib] (partner 0.02 µM)
Procedure, shortened: as §1

[3] = compound: CC1=C(C=C(C=C1)NC(=O)C2=CC(=CC=C2)C(C)(C)C#N)NC3=CC4=C(C=C3)N=CN(C4=O)C [AZ628] + Cc1nc(NC(=O)N2CCC[C@H]2C(N)=O)sc1-c1ccnc(C(C)(C)C(F)(F)F)c1 [Alpelisib] (partner 2 µM)
Procedure, shortened: as §1

[4] = compound: C[As](C)SC[C@H](NC(=O)CC[C@H](N)C(=O)O)C(=O)NCC(=O)O [Darinaparsin] + CCNC(=O)c1noc(-c2cc(C(C)C)c(O)cc2O)c1-c1ccc(CN2CCOCC2)cc1 [Luminespib] (partner 0.01 µM)
Procedure, shortened: as §1

Cell Line | relative viability ([1]; first compound 0.08 µM) | relative viability ([1]; first compound 0.253 µM) | relative viability ([1]; first compound 0.8 µM) | relative viability ([1]; first compound 2.53 µM) | relative viability ([1]; first compound 8 µM) | relative viability ([2]; first compound 0.08 µM) | relative viability ([2]; first compound 0.253 µM) | relative viability ([2]; first compound 0.8 µM) | relative viability ([2]; first compound 2.53 µM) | relative viability ([2]; first compound 8 µM) | relative viability ([3]; first compound 0.08 µM) | relative viability ([3]; first compound 0.253 µM) | relative viability ([3]; first compound 0.8 µM) | relative viability ([3]; first compound 2.53 µM) | relative viability ([3]; first compound 8 µM) | relative viability ([4]; first compound 0.08 µM) | relative viability ([4]; first compound 0.8 µM) | relative viability ([4]; first compound 8 µM) | relative viability ([4]; first compound 2.53 µM)
NCI-H1648 | 0.279 | 0.265 | 0.331 | 0.294 | 0.294 | 0.404 | 0.333 | 0.288 | 0.337 | 0.284 |  |  |  |  |  |  |  |  | 
NCI-H358 | 0.132 | 0.128 | 0.134 | 0.159 | 0.118 | 0.113 | 0.112 | 0.104 | 0.102 | 0.134 | 0.745 | 0.639 | 0.668 | 0.571 | 0.389 | 0.416 | 0.332 | 0.344 | 
NCI-H3122 | 0.171 | 0.225 |  | 0.188 | 0.18 | 0.157 | 0.143 | 0.159 | 0.138 | 0.132 | 0.631 | 0.337 | 0.342 | 0.268 | 0.233 | 0.0869 | 0.0882 | 0.112 | 0.107
NCI-H2347 | 0.375 | 0.476 | 0.414 | 0.4 | 0.354 | 0.233 | 0.277 | 0.261 | 0.256 | 0.27 | 0.679 | 0.934 | 0.779 | 0.822 | 0.471 | 1.01 |  | 0.388 | 0.414
HCC-15 | 0.765 | 0.808 | 0.579 | 0.701 | 0.542 | 0.334 | 0.291 | 0.272 | 0.25 | 0.243 | 0.967 | 0.742 | 0.707 | 0.699 | 0.392 | 0.461 | 0.253 | 0.467 | 0.326
HCC-366 | 0.433 | 0.454 |  | 0.162 | 0.0973 | 0.277 | 0.242 | 0.204 | 0.233 | 0.156 | 0.356 | 0.317 | 0.154 | 0.26 | 0.12 |  |  |  | 
BEN | 0.479 | 0.481 | 0.501 | 0.52 | 0.502 | 1.12 | 1.01 | 0.806 | 1.02 | 0.783 | 1.22 | 0.87 | 0.791 | 0.963 | 0.835 | 0.409 | 0.366 | 0.522 | 0.511
NCI-H1993 | 0.646 | 0.544 | 0.59 | 0.708 | 0.641 | 0.456 | 0.516 | 0.479 | 0.535 | 0.667 | 0.73 | 0.61 | 0.662 | 0.631 | 0.739 | 0.957 | 0.698 | 0.723 | 0.724
NCI-H2405 | 0.544 | 0.541 | 0.488 | 0.536 | 0.502 | 0.387 | 0.319 | 0.277 | 0.286 | 0.313 | 0.313 | 0.447 | 0.444 | 0.352 | 0.406 | 0.822 | 0.611 | 0.689 | 0.61
